In ChEMBL document CHEMBL3797052 (Eur J Med Chem, 2016):

Tested on: not listed separately
Assay: Antiproliferative activity against human LOXIMVI cells assessed as cell growth at 10^-4 M after 48 hrs by sulforhodamine B assay
Format: functional
Settings: LOX IMVI, read-out: Activity
For `CNC(=O)c1cc(Oc2ccc3nc(NC(=O)c4cc(C(F)(F)F)cc(C(F)(F)F)c4)sc3c2)ccn1`, the growth at 100 µM was -51%.

Tested on: SK-MEL-2
Assay: Antiproliferative activity against human SK-MEL-2 cells assessed as growth inhibition after 48 hrs by sulforhodamine B assay
Format: functional
Settings: SK-MEL-2, 48 h
With `CNC(=O)c1cc(Oc2ccc3nc(NC(=O)c4cc(C(F)(F)F)cc(C(F)(F)F)c4)sc3c2)ccn1` the GI50 was 2.32 µM and the TGI was 6.7 µM.

Same assay, conditions: SK-MEL-2, 48 h, read-out: LC50 (the source's name)
Compound `CNC(=O)c1cc(Oc2ccc3nc(NC(=O)c4cc(C(F)(F)F)cc(C(F)(F)F)c4)sc3c2)ccn1` has a CC50 of 81.6 µM.

Tested on: not listed separately
Assay: Antiproliferative activity against human Hs 578T cells assessed as cell growth at 10^-4 M after 48 hrs by sulforhodamine B assay
Format: functional
Settings: read-out: Activity
`CNC(=O)c1cc(Oc2ccc3nc(NC(=O)c4cc(C(F)(F)F)cc(C(F)(F)F)c4)sc3c2)ccn1` showed a growth at 100 µM of -42%.

Tested on: not listed separately
Assay: Antiproliferative activity against human HOP92 cells assessed as cell growth at 10^-8 M after 48 hrs by sulforhodamine B assay
Format: functional
Settings: HOP-92, 48 h, read-out: Activity
`CNC(=O)c1cc(Oc2ccc3nc(NC(=O)c4cc(C(F)(F)F)cc(C(F)(F)F)c4)sc3c2)ccn1` gave a growth at 0.01 µM of 91%.

Tested on: not listed separately
Assay: Antiproliferative activity against human OVCAR5 cells assessed as cell growth at 10^-8 M after 48 hrs by sulforhodamine B assay
Format: functional
Settings: OVCAR-5, 48 h, read-out: Activity
Work on `CNC(=O)c1cc(Oc2ccc3nc(NC(=O)c4cc(C(F)(F)F)cc(C(F)(F)F)c4)sc3c2)ccn1` yielded a growth at 0.01 µM of 96%.

Tested on: not listed separately
Assay: Antiproliferative activity against human OVCAR4 cells assessed as cell growth at 10^-8 M after 48 hrs by sulforhodamine B assay
Format: functional
Settings: OVCAR-4, 48 h, read-out: Activity
For `CNC(=O)c1cc(Oc2ccc3nc(NC(=O)c4cc(C(F)(F)F)cc(C(F)(F)F)c4)sc3c2)ccn1`, the growth at 0.01 µM was 95%.

Tested on: not listed separately
Assay: Antiproliferative activity against human HOP92 cells assessed as cell growth at 10^-7 M after 48 hrs by sulforhodamine B assay
Format: functional
Settings: HOP-92, 48 h, read-out: Activity
With `CNC(=O)c1cc(Oc2ccc3nc(NC(=O)c4cc(C(F)(F)F)cc(C(F)(F)F)c4)sc3c2)ccn1` the growth at 0.1 µM was 86%.

Tested on: not listed separately
Assay: Antiproliferative activity against human OVCAR8 cells assessed as cell growth at 10^-6 M after 48 hrs by sulforhodamine B assay
Format: functional
Settings: OVCAR-8, 48 h, read-out: Activity
Work on `CNC(=O)c1cc(Oc2ccc3nc(NC(=O)c4cc(C(F)(F)F)cc(C(F)(F)F)c4)sc3c2)ccn1` yielded a growth at 1 µM of 90%.

Tested on: Malme-3M
Assay: Antiproliferative activity against human MALME-3M cells assessed as growth inhibition after 48 hrs by sulforhodamine B assay
Format: functional
Settings: not given
`CNC(=O)c1cc(Oc2ccc3nc(NC(=O)c4cc(C(F)(F)F)cc(C(F)(F)F)c4)sc3c2)ccn1` gave a GI50 of 2.03 µM and a TGI of 6.65 µM.

Same assay, conditions: read-out: LC50 (the source's name)
`CNC(=O)c1cc(Oc2ccc3nc(NC(=O)c4cc(C(F)(F)F)cc(C(F)(F)F)c4)sc3c2)ccn1` showed a CC50 of over 100 µM.

Tested on: SK-MEL-2
Assay: Antiproliferative activity against human SK-MEL-2 cells assessed as cell growth at 10^-4 M after 48 hrs by sulforhodamine B assay
Format: functional
Settings: SK-MEL-2, 48 h, read-out: Activity
In the case of `CNC(=O)c1cc(Oc2ccc3nc(NC(=O)c4cc(C(F)(F)F)cc(C(F)(F)F)c4)sc3c2)ccn1`, the growth at 100 µM is reported as -53%.

Tested on: not listed separately
Assay: Antiproliferative activity against human RXF393 cells assessed as cell growth at 10^-6 M after 48 hrs by sulforhodamine B assay
Format: functional
Settings: RXF 393, 48 h, read-out: Activity
Compound `CNC(=O)c1cc(Oc2ccc3nc(NC(=O)c4cc(C(F)(F)F)cc(C(F)(F)F)c4)sc3c2)ccn1` has a growth at 1 µM of 97%.

Tested on: not listed separately
Assay: Antiproliferative activity against human UACC257 cells assessed as growth inhibition after 48 hrs by sulforhodamine B assay
Format: functional
Settings: UACC-257, 48 h
`CNC(=O)c1cc(Oc2ccc3nc(NC(=O)c4cc(C(F)(F)F)cc(C(F)(F)F)c4)sc3c2)ccn1` showed a GI50 of 2.89 µM and a TGI of 8.12 µM.

Same assay, conditions: UACC-257, 48 h, read-out: LC50 (the source's name)
For `CNC(=O)c1cc(Oc2ccc3nc(NC(=O)c4cc(C(F)(F)F)cc(C(F)(F)F)c4)sc3c2)ccn1`, the CC50 was over 100 µM.

Tested on: EKVX
Assay: Antiproliferative activity against human EKVX cells assessed as cell growth at 10^-4 M after 48 hrs by sulforhodamine B assay
Format: functional
Settings: read-out: Activity
`CNC(=O)c1cc(Oc2ccc3nc(NC(=O)c4cc(C(F)(F)F)cc(C(F)(F)F)c4)sc3c2)ccn1` showed a growth at 100 µM of -27%.

Tested on: not listed separately
Assay: Antiproliferative activity against human SF295 cells assessed as cell growth at 10^-6 M after 48 hrs by sulforhodamine B assay
Format: functional
Settings: SF-295, 48 h, read-out: Activity
Work on `CNC(=O)c1cc(Oc2ccc3nc(NC(=O)c4cc(C(F)(F)F)cc(C(F)(F)F)c4)sc3c2)ccn1` yielded a growth at 1 µM of 83%.

Tested on: not listed separately
Assay: Antiproliferative activity against human PC3 cells assessed as cell growth at 10^-7 M after 48 hrs by sulforhodamine B assay
Format: functional
Settings: PC-3, 48 h, read-out: Activity
`CNC(=O)c1cc(Oc2ccc3nc(NC(=O)c4cc(C(F)(F)F)cc(C(F)(F)F)c4)sc3c2)ccn1` showed a growth at 0.1 µM of 94%.

Tested on: not listed separately
Assay: Antiproliferative activity against human HCC2998 cells assessed as cell growth at 10^-7 M after 48 hrs by sulforhodamine B assay
Format: functional
Settings: HCC 2998, 48 h, read-out: Activity
`CNC(=O)c1cc(Oc2ccc3nc(NC(=O)c4cc(C(F)(F)F)cc(C(F)(F)F)c4)sc3c2)ccn1` showed a growth at 0.1 µM of 108%.

Tested on: not listed separately
Assay: Antiproliferative activity against human UO31 cells assessed as cell growth at 10^-7 M after 48 hrs by sulforhodamine B assay
Format: functional
Settings: UO-31, 48 h, read-out: Activity
Compound `CNC(=O)c1cc(Oc2ccc3nc(NC(=O)c4cc(C(F)(F)F)cc(C(F)(F)F)c4)sc3c2)ccn1` has a growth at 0.1 µM of 86%.

Tested on: SR
Assay: Antiproliferative activity against human SR cells assessed as cell growth at 10^-8 M after 48 hrs by sulforhodamine B assay
Format: functional
Settings: read-out: Activity
With `CNC(=O)c1cc(Oc2ccc3nc(NC(=O)c4cc(C(F)(F)F)cc(C(F)(F)F)c4)sc3c2)ccn1` the growth at 0.01 µM was 91%.

Tested on: not listed separately
Assay: Antiproliferative activity against human SF268 cells assessed as cell growth at 10^-8 M after 48 hrs by sulforhodamine B assay
Format: functional
Settings: SF-268, 48 h, read-out: Activity
With `CNC(=O)c1cc(Oc2ccc3nc(NC(=O)c4cc(C(F)(F)F)cc(C(F)(F)F)c4)sc3c2)ccn1` the growth at 0.01 µM was 93%.

Tested on: A549
Assay: Antiproliferative activity against human A549/ATCC cells assessed as cell growth at […] after 48 hrs by sulforhodamine B assay
Format: functional
Settings: A549, 48 h, read-out: Activity
Work on `CNC(=O)c1cc(Oc2ccc3nc(NC(=O)c4cc(C(F)(F)F)cc(C(F)(F)F)c4)sc3c2)ccn1` yielded a growth at 0.1 µM of 101%.

Tested on: not listed separately
Assay: Antiproliferative activity against human SW620 cells assessed as cell growth at 10^-4 M after 48 hrs by sulforhodamine B assay
Format: functional
Settings: SW-620, 48 h, read-out: Activity
With `CNC(=O)c1cc(Oc2ccc3nc(NC(=O)c4cc(C(F)(F)F)cc(C(F)(F)F)c4)sc3c2)ccn1` the growth at 100 µM was -10%.

Tested on: NCI-H226
Assay: Antiproliferative activity against human NCI-H226 cells assessed as cell growth at 10^-8 M after 48 hrs by sulforhodamine B assay
Format: functional
Settings: NCI-H226, 48 h, read-out: Activity
`CNC(=O)c1cc(Oc2ccc3nc(NC(=O)c4cc(C(F)(F)F)cc(C(F)(F)F)c4)sc3c2)ccn1` showed a growth at 0.01 µM of 99%.

Tested on: not listed separately
Assay: Antiproliferative activity against human SNB75 cells assessed as cell growth at 10^-6 M after 48 hrs by sulforhodamine B assay
Format: functional
Settings: SNB-75, 48 h, read-out: Activity
Work on `CNC(=O)c1cc(Oc2ccc3nc(NC(=O)c4cc(C(F)(F)F)cc(C(F)(F)F)c4)sc3c2)ccn1` yielded a growth at 1 µM of 89%.

Tested on: not listed separately
Assay: Antiproliferative activity against human Caki1 cells assessed as cell growth at 10^-7 M after 48 hrs by sulforhodamine B assay
Format: functional
Settings: CAKI-1, 48 h, read-out: Activity
Work on `CNC(=O)c1cc(Oc2ccc3nc(NC(=O)c4cc(C(F)(F)F)cc(C(F)(F)F)c4)sc3c2)ccn1` yielded a growth at 0.1 µM of 91%.

Tested on: SN12C
Assay: Antiproliferative activity against human SN12C cells assessed as cell growth at 10^-4 M after 48 hrs by sulforhodamine B assay
Format: functional
Settings: read-out: Activity
In the case of `CNC(=O)c1cc(Oc2ccc3nc(NC(=O)c4cc(C(F)(F)F)cc(C(F)(F)F)c4)sc3c2)ccn1`, the growth at 100 µM is reported as -53%.

Tested on: SK-MEL-28
Assay: Antiproliferative activity against human SK-MEL-28 cells assessed as cell growth at 10^-6 M after 48 hrs by sulforhodamine B assay
Format: functional
Settings: SK-MEL-28, 48 h, read-out: Activity
Compound `CNC(=O)c1cc(Oc2ccc3nc(NC(=O)c4cc(C(F)(F)F)cc(C(F)(F)F)c4)sc3c2)ccn1` has a growth at 1 µM of 87%.

Tested on: A549
Assay: Antiproliferative activity against human A549/ATCC cells assessed as cell growth at 10^-6 M after 48 hrs by sulforhodamine B assay
Format: functional
Settings: A549, 48 h, read-out: Activity
`CNC(=O)c1cc(Oc2ccc3nc(NC(=O)c4cc(C(F)(F)F)cc(C(F)(F)F)c4)sc3c2)ccn1` showed a growth at 1 µM of 105%.

Tested on: not listed separately
Assay: Antiproliferative activity against human OVCAR4 cells assessed as growth inhibition after 48 hrs by sulforhodamine B assay
Format: functional
Settings: OVCAR-4, 48 h
For `CNC(=O)c1cc(Oc2ccc3nc(NC(=O)c4cc(C(F)(F)F)cc(C(F)(F)F)c4)sc3c2)ccn1`, the GI50 was 3.12 µM and the TGI was 27.2 µM.

Same assay, conditions: OVCAR-4, 48 h, read-out: LC50 (the source's name)
Work on `CNC(=O)c1cc(Oc2ccc3nc(NC(=O)c4cc(C(F)(F)F)cc(C(F)(F)F)c4)sc3c2)ccn1` yielded a CC50 of over 100 µM.

Biological target: T1, CYP1A2 (Homo sapiens, UniProt P05177)
T1 sequence (P05177 whole entry): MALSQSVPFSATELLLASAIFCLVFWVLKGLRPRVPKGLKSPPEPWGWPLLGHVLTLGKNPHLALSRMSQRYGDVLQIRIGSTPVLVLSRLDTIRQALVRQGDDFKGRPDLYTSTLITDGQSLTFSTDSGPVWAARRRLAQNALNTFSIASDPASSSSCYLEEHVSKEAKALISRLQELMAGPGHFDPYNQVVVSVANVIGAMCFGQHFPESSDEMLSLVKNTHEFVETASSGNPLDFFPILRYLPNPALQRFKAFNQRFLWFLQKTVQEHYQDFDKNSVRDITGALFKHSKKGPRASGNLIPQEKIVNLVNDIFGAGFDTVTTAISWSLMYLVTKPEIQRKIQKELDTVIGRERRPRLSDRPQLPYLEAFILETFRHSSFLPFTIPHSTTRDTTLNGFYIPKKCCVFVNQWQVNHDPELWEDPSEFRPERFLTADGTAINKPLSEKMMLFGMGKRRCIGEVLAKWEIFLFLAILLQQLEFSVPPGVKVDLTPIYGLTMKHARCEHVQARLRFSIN
Assay: Inhibition of recombinant human CYP1A2 assessed as remaining enzyme activity using CYP1A2 blue as substrate at 10 uM after 5 mins in presence of NADP by fluorescence plate reader analysis
Format: ADME
Settings: recombinant human CYP1A2, probe CYP1A2 blue, read-out: Activity
With `CNC(=O)c1cc(Oc2ccc3nc(NC(=O)c4cc(C(F)(F)F)cc(C(F)(F)F)c4)sc3c2)ccn1` the activity at 5 min, 10 µM was 98.3%.
